Assay results taken from ChEMBL document CHEMBL3272257, “Clonidine and related analogues. Quantitative correlations” (J Med Chem, 1976).

Key:
Rattus norvegicus [1] = assay: Peripheral adrenergic activity in iv dosed pithed rat assessed as change in mean blood pressure; assay type: functional
Rattus norvegicus [2] = assay: Toxicity in iv dosed pithed rat; assay type: organism-based; conditions: in vivo
Rattus norvegicus [3] = species on record: Rattus norvegicus; assay: Hypotensive activity in rat assessed as change in mean blood pressure relative to control; assay type: functional; design: concentration or dose not given beside the values
[4] = Dissociation constant, pKa of the compound in water-ethyl alcohol; assay type: physicochemical
[5] = Octan-1-ol-aqueous buffer partition coefficient, log P of the compound at 10 to 20 mg at pH 7.4 by UV-spectroscopic analysis; assay type: physicochemical
[6] = Retardation factor, deltaRm of the compound at pH 13 by TLC analysis; assay type: physicochemical

Row | Compound | pD2 (Rattus norvegicus [1]) | LD50 (Rattus norvegicus [2]) [µM] | Activity (Rattus norvegicus [3]) [%] | pKa [4] | logD [5] | deltaRm [6]
1 | Cc1cc(C)c(N=C2NCCN2)c(C)c1 | 7.8 |  |  |  |  | 
2 | COc1cc(C)c(N=C2NCCN2)c(C)c1 |  | 54 |  |  |  | 
3 | Cc1ccc(NC2=NCCN2)c(Cl)c1 [TOLONIDINE] | 7.08 |  | 15 | 9.55 | -0.28 | 
4 | Brc1ccc(N=C2NCCN2)cc1 | 6.09 |  | <10 | 9.65 | -0.5 | 0.58
5 | Fc1cccc(F)c1N=C1NCCN1 | 7.23 |  | <10 | 8.4 | 0.02 | 0.24
6 | COc1ccc(OC)c(N=C2NCCN2)c1 | 6.98 |  | <10 | 10.2 | -1.78 | -0.42
7 | Cc1ccc(N=C2NCCN2)c(C)c1 | 7.74 |  | >10 | 10.7 | -1.46 | 0.43
8 | Cc1cc(O)cc(C)c1N=C1NCCN1 | 7.51 |  |  |  |  | 
9 | Cc1cccc(C)c1N=C1NCCN1 | 7.74 |  | <10 | 10.5 | -1.65 | 0.42
10 | Cc1cccc(Cl)c1N=C1NCCN1 | 7.74 |  | 15 | 9.2 | -0.4 | 0.45
11 | Brc1cccc(Br)c1N=C1NCCN1 | 7.28 |  | 15 | 7.95 | 1.15 | 0.61
12 | Clc1ccc(N=C2NCCN2)c(Cl)c1 | 6.71 |  | 15 | 8.65 | 0.69 | 0.76
13 | FC(F)(F)c1ccccc1N=C1NCCN1 | 6.13 |  | <10 | 8.8 | 0 | 
14 | CC(C)c1cccc(C(C)C)c1N=C1NCCN1 | 5.79 |  | <10 | 10.7 | -0.21 | 1.32
15 | Clc1cc(Cl)c(N=C2NCCN2)cc1Cl |  |  |  | 7.7 | 1.63 | 1.2
16 | CCc1ccccc1N=C1NCCN1 | 7.55 |  |  |  |  | 
17 | COc1cc(OC)c(N=C2NCCN2)cc1Cl | 6.68 |  | <10 | 10.2 | -1.37 | -0.07
18 | Cc1ccc(Cl)cc1N=C1NCCN1 | 7.64 |  | <10 | 9.5 | -0.3 | 0.72
19 | Oc1cc(Cl)c(N=C2NCCN2)c(Cl)c1 | 7.37 |  | <10 | 7.95 | -0.4 | 
20 | Clc1cc(Cl)c(N=C2NCCN2)c(Cl)c1 | 7.13 |  | 15 | 7.6 |  | 1
21 | Clc1cccc(Cl)c1NC1=NCCN1 [CLONIDINE] | 7.66 |  | 15 | 8.05 | 0.83 | 0.38
22 | Cc1cc(Cl)ccc1N=C1NCCN1 | 7.11 |  | <10 | 9.75 | -0.58 | 0.75
23 | Clc1ccc(Cl)c(N=C2NCCN2)c1 | 7.65 |  | <10 | 8 | 0.95 | 0.71
24 | CCc1cccc(CC)c1NC1=NCCN1 | 7.61 |  | >10 | 10.6 | -0.84 | 0.95
25 | c1ccc(NC2=NCCN2)cc1 | 5.84 |  | <10 | 10.4 | -1.8 | 0
26 | COc1cc(C)ccc1N=C1NCCN1 | 6.58 |  | <10 | 10.6 | -1.56 | -0.03
